# Assay results from publication PMC7926640, “Synthesis, Neuroprotection, and Antioxidant Activity of 1,1′-Biphenylnitrones as α-Phenyl-N-tert-butylnitrone Analogues in In Vitro Ischemia Models” (Molecules, 2021).
# Molecular target: T1, soybean lipoxygenase (LOX) (Glycine max, UniProt P08170)
# T1 construct: gene LOX1.1
# T1 sequence (P08170 1-839): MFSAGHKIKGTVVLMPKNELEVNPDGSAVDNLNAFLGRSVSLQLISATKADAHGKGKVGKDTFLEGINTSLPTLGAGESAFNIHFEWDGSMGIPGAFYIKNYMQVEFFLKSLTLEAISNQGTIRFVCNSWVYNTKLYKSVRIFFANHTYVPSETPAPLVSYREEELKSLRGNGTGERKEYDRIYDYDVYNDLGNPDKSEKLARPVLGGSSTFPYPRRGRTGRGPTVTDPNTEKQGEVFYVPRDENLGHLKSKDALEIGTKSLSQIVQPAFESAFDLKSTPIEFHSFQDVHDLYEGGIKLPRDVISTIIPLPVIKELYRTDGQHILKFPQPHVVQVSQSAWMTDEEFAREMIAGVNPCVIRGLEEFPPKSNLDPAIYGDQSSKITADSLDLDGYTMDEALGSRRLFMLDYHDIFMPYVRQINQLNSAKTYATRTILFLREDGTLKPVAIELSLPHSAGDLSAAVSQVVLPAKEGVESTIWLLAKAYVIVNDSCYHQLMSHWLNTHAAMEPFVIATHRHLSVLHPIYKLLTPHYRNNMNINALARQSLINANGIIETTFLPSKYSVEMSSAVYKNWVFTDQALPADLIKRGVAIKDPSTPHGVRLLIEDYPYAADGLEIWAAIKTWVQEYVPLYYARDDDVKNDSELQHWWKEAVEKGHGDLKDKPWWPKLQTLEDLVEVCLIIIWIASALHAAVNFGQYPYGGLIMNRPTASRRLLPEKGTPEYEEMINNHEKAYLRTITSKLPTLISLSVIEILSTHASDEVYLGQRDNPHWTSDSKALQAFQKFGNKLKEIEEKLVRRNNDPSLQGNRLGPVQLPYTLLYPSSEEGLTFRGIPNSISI
# Assay: soybean LOX inhibition, linoleate oxidation monitored at […] nm
# Assay type: biochemical
row,IC50,SMILES
1,100 µM,"C/[N+]([O-])=C/c1ccc(-c2ccccc2)cc1 [compound 1, (Z)-1-([1,1′-Biphenyl]-4-yl)-N-methylmethanimine oxide]"
2,57.5 µM,"[O-]/[N+](=C\c1ccc(-c2ccccc2)cc1)Cc1ccccc1 [compound 3, (Z)-1-([1,1′-Biphenyl]-4-yl)-N-benzylmethanimine oxide]"
3,100 µM,"CC(C)(C)/[N+]([O-])=C/c1ccc(-c2ccc(/C=[N+](\[O-])C(C)(C)C)cc2)cc1 [compound 5, (1Z,1′Z)-1,1′-([1,1′-Biphenyl]-4,4′-diyl)bis(N-tert-butylmethanimineoxide)]"
